{"source": "paper PMC9741287", "about": "“Cytotoxic and Luminescent Properties of Novel Organotin Complexes with Chelating Antioxidant Ligand” (Molecules, 2022)", "key": {"[1]": {"test_system": "superoxide radical anion O2−• (xanthine-xanthine oxidase system)", "assay": "NBT-test, superoxide generated in the xanthine-xanthine oxidase system", "assay_type": "biochemical", "settings": "for I (NBT-Test): 0.006 mL of 5 mM compound in DMSO per 0.3 mL well, 600 s, 560 nm, negative = stimulation", "from_the_text": "Xanthine oxidase is molybdenum containing enzyme responsible for purine catabolism in the human organism. It is capable of xanthine oxidation, resulting in uric acid and superoxide radical anion as a side product. The latter one is well-known ROS, and the ability to neutralize it marks the compound as a perspective antioxidant. This is followed by the interaction of O2^−• and nitro-blue tetrazolium resulting in the cycle opening (Scheme 4), which is accompanied by the color change with λmax = 560 nm and can be monitored spectrophotometrically.\nThe influence of compounds on superoxide radical anion О2^−• generated in the enzymatic system xanthine-xanthine oxidase was estimated as the amount of nitro-blue tetrazolium (NBT) reduced to formazan. The assay was carried out in 96-well plates. The total volume of a single well was 0.3 mL and consisted of 0.27 mL of carbonate buffer (40 mM, pH 10.0) containing EDTA (0.1 mM), 0.006 mL of xanthine (10 mM) in carbonate buffer, 0.003 mL of 0.5% bovine serum albumin in water, 0.003 mL of NBT chloride (2.5 mM) in water, and 0.006 mL of a solution of the studied compound in DMSO (5 mM). Xanthine oxidase (0.012 mL, 0.004 units) in buffer was added to the mixture at rt to start the reaction and the absorption at λmax = 560 nm was recorded for 600 s. The control experiment was performed in the presence of 0.006 mL DMSO without a compound. All experiments were performed in triplicate.\nInhibition was expressed by the Equation (2):I (%) = (ν0/ν0′) × 100%,(2) where v0 and v0′ are initial rates of the enzymatic reaction in the presence and absence (control) of the compounds under study, respectively.\nThe initial rate (v0 and v0′) was calculated by the Equation (3):ν0 = ΔС/Δt = ΔA/(Δt × ε) = tgα/(Δt × ε),(3)\nA1 is the absorbance in the presence of the testing compound at the end of the reaction (600 s), and A0 is the absorbance of the blank solution. ΔA is the difference between A1 and A0. All experiments were performed in triplicate."}, "[2]": {"assay": "DPPH-test (radical scavenging)", "settings": "for Quantity of Reduced DPPH after 20 h: DPPH 0.2 mM + test compound 0.2 mM in EtOH, equal volumes, 517 nm", "from_the_text": "2,2-Diphenyl-1-picrylhydrazyl (DPPH)—is a stable N-centered chromophore radical with absorption peak λmax = 517 nm, while its reduced form is pale yellow. Its reduction can be monitored spectrophotometrically and is a well-known and convenient way of evaluating radical scavenging activity. […] This may be caused by the participation not of only the sterically hindered phenolic group in the process of radical scavenging, but salicylic phenolic group and probably hydrazide fragment as well. The abovementioned structural moieties participate in the coordination of tin atoms, and therefore are excluded from the mechanism of antioxidant action of complexes. […] The introduction of tin is known to lower the radical scavenging capacity of corresponding ligands and is estimated as referred previously. The only exception is complex 7, bearing two 2,6-di-tert-butylphenols pendants attached directly to the tin.\nThe activity of synthesized compounds as radical scavengers was estimated spectrophotometrically at λmax = 517 nm using stable radical 2,2-diphenyl-1-picrylhydrazyl (Sigma-Aldrich) according to the known procedure. The reaction mixture contained DPPH (0.75 mL, 0.2 mM) and a solution of the test compound in EtOH (0.75 mL, 0.2 mM), and was put in 1 cm glass cuvettes. The measurements were carried out for 20 h and the results were calculated using Microsoft Excel 2010. Antioxidant activity was expressed as the percentage of reduced DPPH according to the Equation (1):I (%) = ((A0 − A1)/A0) × 100(1) where A0 is the absorbance of the control 0.1 mM DPPH in EtOH, ε DPPH = 1.15·× 10^4, and A1 is the absorbance of the reaction mixture in the presence of the test compound."}, "[3]": {"test_system": "formation of advanced glycation end products (AGEs)", "assay": "Antiglycation activity (BSA-glucose, AGE fluorescence)", "assay_type": "biochemical", "settings": "for Antiglycation activity, M ± SEM: 24 h at 60 °C", "method": "The glycation reaction was carried out in a phosphate buffer solution of 0.05 M, pH 7.4. Composition of the reaction medium: 0.36 M glucose solution and 1 mg/mL BSA (fraction V). The test compounds were dissolved in 99% DMSO (final concentration in the reaction medium ~3%). The activity of compound 1 was studied in the concentration range of 1000–0.1 μM, and the activity of aminoguanidine was determined at concentrations of 10,000–1000 μM. Control samples contained an equivalent volume of solvent. The samples were incubated for 24 h at 60 °C.\nData registration was carried out by the spectrofluorimetric method, determining AGE by specific fluorescence at excitation/emission wavelengths of 370/440 nm (spectrofluorimeter M 200 PRO, TECAN Austria GmbH, Grödig, Austria).\nIn order to exclude false positive results for compounds suppressing AGE fluorescence due to interference, the obtained data were logarithmically normalized according to Equation (4):Fly(log) = 10^(log10(Exp)−log10(Blank)) − 1(4) where Fly(log) is the normalized AGE fluorescence intensity, log10(Exp) and log10(blank) are the decimal logarithms of the actual fluorescence levels of glycated and corresponding non-glycated samples (both containing the test compound and controls).\nThe activity of other compounds (both non-fluorescent and fluorescent at the wavelengths used) was expressed by the Equation (5):Fly(lin) = Exp − Blank(5) where Fly(lin) is the fluorescence intensity of AGEs, Exp and blank are the actual fluorescence levels of glycated and corresponding non-glycated samples (both those containing the test compound and controls).\nDetermination of activity expressed as % suppression of fluorescence of AGE, was made according to the Equation (6):% = 100 − (Fly(Exp) × 100/Fly(Contr))(6) where Fly(Exp) and Fly(Contr) are the CPG fluorescence intensity of experimental and control samples, respectively (log-normalized or non-log-normalized)."}, "[4]": {"assay": "MTT test with HepG2 cells, 48 h", "assay_type": "cell-based", "settings": "human, HepG2 cells; HepG2, 48 h incubation, MTT", "method": "(§1) Cytotoxic properties of 1 are unusual, so an additional cytotoxicity assay with HepG2 cells was carried out and CC50 values were estimated (Figure 5).\n(§2) The fact that ligand 1 itself has cytotoxic properties can be interpreted as the existence of a pharmacological target, specific to 1. The detection of potential targets for ligand 1 involves research on cell cycle influence and many other assays, and will be carried out in future studies.\n(§3) Figure 5 An effect of compound 1 at concentrations of 0.001–100 µM on the metabolic activity (viability) of HepG2 cells during 48 h incubation in the MTT test."}, "HepG2 cells": {"test_system": "HepG2 cells", "assay": "MTT test with HepG2 cells, 48 h", "assay_type": "cell-based", "settings": "HepG2, 48 h", "method": "as §1, §2, §3"}}}
{"compound": "CC(C)(C)c1cc(C2=NN=Cc3ccccc3[O][Sn]([C](C)(C)C)([C](C)(C)C)[O]2)cc(C(C)(C)C)c1O", "note": "[Compound 5, Bu^t2SnL]", "values": [{"measurement": "I (NBT-Test)", "setting": "[1]", "result": "5.9 ± 1.5", "unit": "%"}, {"measurement": "Quantity of Reduced DPPH after 20 h", "setting": "[2]", "result": "26.5 ± 1.7", "unit": "%"}]}
{"compound": "CC(C)(C)c1cc(C2=NN=Cc3ccccc3[O][Sn]([c]3ccccc3)([c]3ccccc3)[O]2)cc(C(C)(C)C)c1O", "note": "[Compound 6, Ph2SnL]", "values": [{"measurement": "O2−• scavenging in NBT-test", "setting": "[1]", "result": "stimulate O2^−· formation instead of inhibiting it"}, {"measurement": "I (NBT-Test)", "setting": "[1]", "result": "−28.0 ± 3.6", "unit": "%"}, {"measurement": "Quantity of Reduced DPPH after 20 h", "setting": "[2]", "result": "47.4 ± 2.7", "unit": "%"}]}
{"compound": "CC(C)(C)c1cc(C2=NN=Cc3ccccc3[O][Sn]([c]3cc(C(C)(C)C)c(O)c(C(C)(C)C)c3)([c]3cc(C(C)(C)C)c(O)c(C(C)(C)C)c3)[O]2)cc(C(C)(C)C)c1O", "note": "[Compound 7, (2,6-Di-tert-butylphenol)2SnL]", "values": [{"measurement": "O2−• scavenging in NBT-test", "setting": "[1]", "result": "stimulate O2^−· formation instead of inhibiting it"}, {"measurement": "I (NBT-Test)", "setting": "[1]", "result": "−40.5 ± 4.2", "unit": "%"}, {"measurement": "EC50", "setting": "[2]", "result": 12.8, "unit": "µM"}]}
{"compound": "CCC[CH2][Sn]1([CH2]CCC)[O]C(c2cc(C(C)(C)C)c(O)c(C(C)(C)C)c2)=NN=Cc2ccccc2[O]1", "note": "[Compound 4, Bu2SnL]", "values": [{"measurement": "I (NBT-Test)", "setting": "[1]", "result": "−4.6 ± 1.2", "unit": "%"}, {"measurement": "Quantity of Reduced DPPH after 20 h", "setting": "[2]", "result": "50.5 ± 2.8", "unit": "%"}]}
{"compound": "CC(C)(C)c1cc(C(=O)N/N=C/c2ccccc2O)cc(C(C)(C)C)c1O", "note": "[Compound 1, Di-tert-butyl-4-hydroxy-N′-(2-hydroxybenzylidene)-benzohydrazine]", "values": [{"measurement": "IC50", "setting": "[3]", "result": 2800, "unit": "nM"}, {"measurement": "Antiglycation activity, M ± SEM", "setting": "[3]; concentration 0.3 µM", "result": "−1.9 ± 1.4", "unit": "%"}, {"measurement": "Antiglycation activity, M ± SEM", "setting": "[3]; concentration 1 µM", "result": "0.6 ± 2.3", "unit": "%"}, {"measurement": "Antiglycation activity, M ± SEM", "setting": "[3]; concentration 3 µM", "result": "53.9 ± 2.5", "unit": "%"}, {"measurement": "Antiglycation activity, M ± SEM", "setting": "[3]; concentration 10 µM", "result": "60.1 ± 1.1", "unit": "%"}, {"measurement": "Antiglycation activity, M ± SEM", "setting": "[3]; concentration 30 µM", "result": "62.0 ± 0.7", "unit": "%"}, {"measurement": "Antiglycation activity, M ± SEM", "setting": "[3]; concentration 100 µM", "result": "61.6 ± 0.5", "unit": "%"}, {"measurement": "Antiglycation activity, M ± SEM", "setting": "[3]; concentration 300 µM", "result": "73.2 ± 1.9", "unit": "%"}, {"measurement": "Antiglycation activity, M ± SEM", "setting": "[3]; concentration 1000 µM", "result": "70.2 ± 8.0", "unit": "%"}, {"measurement": "I (NBT-Test)", "setting": "[1]", "result": "0.5 ± 0.1", "unit": "%"}, {"measurement": "EC50", "setting": "[2]", "result": 163, "unit": "µM"}, {"measurement": "CC50 at 48 h", "setting": "[4]", "result": "12.4 ± 2", "unit": "µM"}, {"measurement": "Suppression of vital activity relative to the control", "setting": "HepG2 cells; 3 µM", "result": "25.8 ± 4.0", "unit": "%"}, {"measurement": "Minimal concentration that significantly suppresses vital activity", "setting": "HepG2 cells; MTT", "result": 3, "unit": "µM"}]}
{"compound": "C[CH2][Sn]1([CH2]C)[O]C(c2cc(C(C)(C)C)c(O)c(C(C)(C)C)c2)=NN=Cc2ccccc2[O]1", "note": "[Compound 3, Et2SnL]", "values": [{"measurement": "I (NBT-Test)", "setting": "[1]", "result": "7.3 ± 2.0", "unit": "%"}, {"measurement": "Quantity of Reduced DPPH after 20 h", "setting": "[2]", "result": "41.3 ± 2.1", "unit": "%"}]}
{"compound": "CC(C)(C)c1cc(C2=NN=Cc3ccccc3[O][Sn]([CH3])([CH3])[O]2)cc(C(C)(C)C)c1O", "note": "[Compound 2, Me2SnL]", "values": [{"measurement": "I (NBT-Test)", "setting": "[1]", "result": "6.3 ± 1.8", "unit": "%"}, {"measurement": "Quantity of Reduced DPPH after 20 h", "setting": "[2]", "result": "35.2 ± 1.9", "unit": "%"}]}
